Data on two substances can be found in patent US7951370B2, “Anti-TYRP1 antibodies” (ImClone LLC, priority 2008, dated 2011).

Series [1] concerns B16BL6 murine melanoma. The series is described as follows: B16BL6 metastatic melanoma model (lung surface nodules). The note with it: for Inhibition of lung metastases: B16BL6 i.v., day 20. It is filed as in vivo, nude mice. Here is the method:
(§1) For the following subcutaneous studies, tumor volumes are calculated by the formula [π/6(W1×W2×W2)], where W1 represents the largest tumor diameter and W2 represents the smallest tumor diameter. % T/C=100×(Treatment Volume/Initial Volume)/(Control Volume/Initial Volume). Statistical analysis is done using traditional p-value techniques. For the subcutaneous studies the p value is calculated based on the tumor volume of animals receiving the anti-TYPR antibody verses the tumor volume of the control animals. […] Statistical analysis is done using traditional p-value techniques. For the metastatic studies the p-value is calculated based on the nodules observed in the animals receiving the anti-TYPR antibody verses the nodules observed in the control animals.
(§2) B16BL6 is an aggressive and spontaneously arising murine melanoma. It forms lung metastases in nude mice after intravenous administration. Harvest, wash and resuspend cultured SKmel23 and B16BL6 cells melanoma cells in RPMI 1640 media (10% FBS heat inactivated).
Model 1: Inject 1×10^5 B16BL6 cells intravenously. On the second day after the tumor injection, administer to mice anti-TYRP1 antibodies or control human IgG, according to three different dose concentrations (200 μg/mouse, 500 μg/mouse, and 1 mg/mouse). Sacrifice mice on day 20, remove lungs, count lung surface nodules and calculate percent inhibition.
(§3) For the subcutaneous model, harvest, wash and resuspend cultured 624mel cells, in a 50/50 solution of Matrigel and RPMI 1640 media (10% FBS heat inactivated). Inject 2×10^6 624mel cells into the left flank of nude mice. When tumors reach 200 mm^3, treat mice with anti-TYRP1 antibodies, DTIC, or a combination of anti-TYRP1 antibodies and DTIC. Administer 40 mg/kg antibodies once per week. Administer DTIC 5 mg/kg once per week. Measure tumors with calipers twice a week and calculate % T/C. For metastatic model, harvest, wash and resuspend cultured SKmel23, 888mel and B16 melanoma cells, in RPMI 1640 media (10% FBS heat inactivated). Inject SKmel23, 888mel and B16 melanoma cells intravenously. On the second day after the tumor injection, administer to mice anti-TYRP1 antibodies or control human IgG. Sacrifice mice on day 20, remove lungs, count lung surface nodules and calculate percent inhibition.

The subject of series [2] is Human FcR. The series is described as follows: Human FcR binding. The conditions noted are these: Table 4 summary.
In series [3] the test system is SKmel28 xenografts. The series is described as follows: SKmel28 subcutaneous xenograft model. It is filed as in vivo, nude mice. Here is the method:
as §1
(§4) Harvest, wash and resuspend 624mel cultured cells in a 50/50 solution of Matrigel and RPMI 1640 media (10% FBS heat inactivated). For the subcutaneous tumor model, inject 2×10^6 cells subcutaneously into the left flank of nude mice. When tumors reach 200 mm^3, treat mice with anti-TYRP1 antibodies or control human IgG; administer antibodies 1 mg/mouse three times per week. Measure tumors with calipers twice a week and calculate % T/C. […] Tumor growth was inhibited and reached statistical significance at day 16 post initiation of antibody treatment (T/C=44%; P=0.01). […] Lysates of skins from different species are incubated with TA99 (5 μg/ml) for 2 hours at room temperature. The lysates are then precipitated with protein A and subjected to SDS-PAGE under reducing and non-reducing conditions using […]. After electrophoresis, the gels are transferred to PVDF membrane (Invitrogen Life Technologies). […] The blot is developed using a chemiluminescent substrate (KPL, Gaithersburg, Md.).
Mix Skmel28 cells in a 50/50 solution of Matrigel and RPMI 1640 media (10% FBS heat inactivated). Inject 2×10^6 cells subcutaneously into the left flank of nude mice. When tumors reach 200 mm^3, treat mice with anti-TYRP1 antibodies (6 mg/kg, 20 mg/kg, or 60 mg/kg) or control human IgG three times per week. Measure tumors with calipers twice a week and calculate % T/C. […] The anti-tumor effects at each dose were statistically significant: […] (T/C=50%; P=0.04), […] (T/C=19%; P<0.003).

Series [4] deals with TYRP1 (+) human 624mel cells. Briefly: Complement dependent cytotoxicity (CDC) assay. It is filed as cell-based. The note with it: for induction of CDC (in words): 624mel cells in vitro; for Human CDC (%): Table 4 summary, 624mel cells. The protocol: Wash human melanoma cell line 624mel 3 times and bring to a concentration of 10^6 viable cells/mL in a suitable media, such as AIM V Media (Invitrogen Life Technologies). […] Add low-Tox-M Rabbit complement (Cedarlane Labs, Westbury, N.Y.) diluted 1:5 in AIM V at 50 μl/well and incubate for 1 hr at 37° C. Count cells for viability with Trypan Blue (Invitrogen Life Technologies).

For series [5], the system named is 624mel xenograft. Briefly: 624mel subcutaneous xenograft model. It is filed as in vivo, nude mice. Here is the method: as §1, §4
For the subcutaneous tumor model, harvest, wash and resuspend 624mel cultured cells in a 50/50 solution of Matrigel and RPMI 1640 media (10% FBS heat inactivated), then inject 2×10^6 624mel cells subcutaneously into the left flank of nude mice. […] Measure tumors with calipers twice a week and calculate % T/C. […]

Series [6] deals with TYRP1 (+) human 624mel cells. The series is described as follows: Antibody dependent cellular cytotoxicity (ADCC) against human melanoma in vitro. It is filed as cell-based. The conditions noted are these: 624mel cells in vitro. The protocol:
Collect and wash 624mel cells with a suitable media, such as AIM V media (Invitrogen Life Technologies) and plate the cells at a density of 10,000 cells /well in a 100 μL volume, in a 96-well Falcon U bottom plate. Add antibodies at 5 μg/mL in a 50 μL volume and incubate at 37° C. for 0.5 hr with target cells. Effector cells were added in a volume of 50 μL at various E:T (effector:target) ratios. Plates were further incubated for 4 hrs at 37° C. After incubation, plates were spun down at 800 g, and 100 μL of supernatants were gently transferred to 96 well flat bottom plates. Lactate dehydrogenase assay reagent was added as specified by the manufacturer (Roche) and plates were read at 490 nm. Controls in assay: Target Spontaneous and Target Maximum (by adding 50 μL of 4% triton).
Lysis is dependent on the effector to target concentration with lysis of 50% of target cells occurring at an E:T ratio of 100:1.

Series [7] has as its system 888mel cells. The series is described as follows: 888mel metastatic melanoma model (lung surface nodules). It is filed as in vivo, nude mice. Here is the method: as §1
For the metastatic model, harvest, wash and resuspend 888mel cultured cells in RPMI 1640 media (10% FBS heat inactivated), inject 888mel cells intravenously. On the second day after the tumor injection, administer to mice anti-TYRP1 antibodies or control human IgG. Sacrifice mice on day 20, remove lungs, count lung surface nodules and calculate percent inhibition.
For the subcutaneous model, harvest, wash and resuspend cultured 624mel cells, in a 50/50 solution of Matrigel and RPMI 1640 media (10% FBS heat inactivated). Inject 2×10^6 624mel cells into the left flank of nude mice. […]

For series [8], the system named is human SKmel23 cells. Briefly: SKmel23 metastatic melanoma model (lung surface nodules). It is filed as in vivo, nude mice. The conditions noted are these: for reduced metastasis (percent inhibition of lung nodules): SKmel23 i.v., day 20. The protocol:
as §1, §2
Model 2: Inject 1×10^5 human SKmel23 cells intravenously. On the second day after the tumor injection, administer to mice anti-TYRP1 antibodies or control human IgG, according to two different dose concentrations (200 μg/mouse and 500 μg/mouse). Sacrifice mice on day 20, remove lungs, count lung surface nodules and calculate percent inhibition.
as §3

Consider “20D7: recombinant human monoclonal antibody, full length IgG1κ targeting TYRP1; heavy chain SEQ ID NO 29, light chain SEQ ID NO 32 [Antibody 20D7]”, for which the figures for the “Inhibition of lung metastases” value in series [1] (200 μg/mouse), in series [1] (500 μg/mouse) and in series [1] (1 mg/mouse) were 65%, 74% and 95%, respectively. Moreover, the % inhibition – broadly, how much of the control response was suppressed – in series [1] (Table 9, Metastatic, B16) stood at 95%; in series [7] (Table 9, Metastatic, 888 mel), 77%; in series [8] (Table 9, Metastatic, SKmel23) it was 80%. Besides, the “Human FcR binding” value in series [2] was determined as 110 pM. Further, the T/C (usually the result in the treated group divided by that in the control group, in per cent) in series [3] (SKmel28 dose response, 6 mg/kg three times per week) came to 69%; in series [3] (SKmel28 dose response, printed as 6 mg/kg and 20 mg/kg, three times per week), 50%; in series [3] (SKmel28 dose response, printed as 6 mg/kg and 60 mg/kg, three times per week), 19%; in series [3] (SKmel28 xenografts, vs human IgG control, day 43) it was 51%; in series [5] (624mel subcutaneous xenograft, 40 mg/kg twice per week), 21%; in series [5] (established 624mel tumors, 1 mg/mouse three times per week, day 16 post initiation of antibody treatment), 44%. Also, the “induction of CDC (in words)” value in series [4] is “induce CDC”. Further, the “Human CDC (%)” value in series [4] came out at 100%. For the same substance, the “complement-mediated cell lysis (in words)” value in series [4] (antibody concentration of 3.7 μg/mL) was “complete cell lysis”. For the same substance, the “% T/C” value in series [5] (Table 9, Subcutaneous, 624mel, antibody 40 mg/kg once per week, DTIC 5 mg/kg once per week) was found to be 50%. For the same substance, the “induction of ADCC (in words)” value in series [6] is “induce ADCC”. In addition, in series [7] (888mel i.v. in nude mice, day 20), the “inhibition of lung surface metastasis” value was 77%. The “reduced metastasis (percent inhibition of lung nodules)” value in series [8] (200 μg/dose) came out at 58%; in series [8] (500 μg/dose), 73%.
In the case of “CTA99: chimeric anti-TYRP1 antibody with TA99 variable regions and human constant region IgG1; SEQ ID NO 31 and 33”, the “induction of CDC (in words)” value in series [4] is reported as “induce CDC”. In addition, the “Human CDC (%)” value in series [4] was found to be 94%. In addition, the “CDC percentage of cytotoxicity” value in series [4] (antibody concentration 0.05 μg/mL) stood at 9.5%; in series [4] (antibody concentration 0.41 μg/mL), 53%; in series [4] (antibody concentration 1.23 μg/mL), 54%; in series [4] (antibody concentration 3.7 μg/mL), 95%. Besides, the “induction of ADCC (in words)” value in series [6] is “induce ADCC”. Also, the “reduced metastasis (percent inhibition of lung nodules)” value is recorded as 63% in series [8] (200 μg/dose) and 75% in series [8] (500 μg/dose).
